{"source": "patent US7851653B2", "about": "“Method of creating a solvent-free polymeric silicon-containing quaternary ammonium antimicrobial agent having superior sustained antimicrobial properties” (priority 2005, dated 2010)", "key": {"[1]": {"system": "E. coli", "assay": "minimum inhibitory concentration (MIC) using E. coli", "assay_type": "cell-based", "settings": "Escherichia coli", "procedure": "Two volumes of 0.01N NH4OH in water were added slowly to one volume of a 42% by weight solution of 3-(trimethoxysilyl) propyldimethyloctadecyl ammonium chloride in methanol while stirring at room temperature. After ten minutes an additional two volumes of 0.01N NH4OH were added, stirring continued for an additional ten minutes. An additional five volumes of 0.1N NH4OH were added and stirred for an additional ten minutes. The methanol and NH4OH were removed by evaporation and the resulting polymer concentrated to 5% (wt/wt) in a rotary evaporator. The solution was dried to a methanol-free dry powder. Infrared and NMR spectroscopy confirmed the resultant powder was a homopolymer of (trimethoxysilyl) propyldimethyloctadecyl ammonium chloride."}, "[2]": {"system": "E. coli", "assay": "ASTM E 2149-01 antimicrobial activity of immobilized agents under dynamic contact conditions (dynamic shake flask test)", "assay_type": "cell-based", "procedure": "(§1) Antimicrobial testing of the cast PVC films of Example 4 was carried out essentially as described in the ASTM designation E 2149-01 entitled, “Standard test Method for Determining the Antimicrobial Activity of Immobilized Antimicrobial Agents under Dynamic Contact Conditions.” This test is designed to evaluate the antimicrobial properties of materials, which contain active agents that are non-leaching. The method is described briefly below.\nE. coli was grown overnight in rich media in an incubator-shaker at 37° C. while shaking at 300 rpm. After 18 hours of incubation, the bacteria were removed from the incubator and the optical density at 660 nm was measured. The culture was diluted until the optical density corresponds to a bacterial concentration of between 1×10^8 and 3×10^8 Colony Forming Units (CFU) per milliliter. The bacteria were further diluted in phosphate buffer (0.3 mM KPO4 at pH 7.2) such that the working concentration was 1×10^6 to 3×10^6 CFU/mL. Test specimens were added to sterile 15 mL test tubes followed by the addition of 3 mL of the bacterial solution. An aliquot was immediately removed from the flask, serially diluted, and used to inoculate Petri plates containing nutrient agar. The plates were incubated overnight and the concentration of bacteria (CFU/mL) was thus determined. This represents the Time 0 (T0) control. […]"}, "[3]": {"assay": "carbon tetrachloride (CTC) activity of activated carbon, ASTM Method D3467", "assay_type": "physicochemical", "procedure": "Determining whether the impregnation of the carbon with antimicrobial agents had any adverse effect on the adsorption properties of the carbon was accomplished by testing the carbon tetrachloride (CTC) activity of the carbon prior to impregnation and following impregnation with the monomer and polymer forms of the antimicrobial agent. The CTC activity testing was performed by a vendor in accordance with ASTM Method […]."}, "[4]": {"system": "E. coli", "assay": "ASTM E2149-01 on treated cotton swatches before and after accelerated laundering AATCC 61-1996", "assay_type": "cell-based", "procedure": "as §1\nE. coli was grown overnight in rich media in an incubator-shaker at 37° C. while shaking at 300 rpm. After 18 hours of incubation, the bacteria were removed from the incubator and the optical density at 660 nm was measured. The culture was diluted until the optical density corresponds to a bacterial concentration of between 1×10^8 and 3×10^8 Colony Forming Units (CFU) per milliliter. The bacteria were further diluted in phosphate buffer (0.3 mM KPO4 at pH 7.2) such that the working concentration was 1×10^6 to 3×10^6 CFU/mL. Test specimens were added to sterile 15 mL test tubes followed by the addition of 3 mL of the bacterial solution. An aliquot was immediately removed from the flask, serially diluted, and used to inoculate Petri plates containing nutrient agar. The plates were incubated overnight and the concentration of bacteria (CFU/mL) was thus determined. This represents the Time 0 (T0) control. The tube containing the sample was placed in a shaking incubator at 37° C. and 300 rpm for one hour, at which time another aliquot was taken and tested as above. This is the treated sample (TF). All tests were controlled by the inclusion of a tube that contained an untreated sample and a flask with no sample but with bacteria. […] Log kill is a standard method to establish the ability of antimicrobial agents to destroy microorganisms. A log kill of 5.0 means that 100,000 microorganisms were destroyed on contact with the treated surface. A log kill of 6.0 establishes that 1,000,000 microorganisms were destroyed on contact with the treated surface. A log kill in excess of 5.0 is typically interpreted as an exceptionally active antimicrobial agent.\nUnbleached cotton fabric was treated with various concentration levels of both monomeric 3-(trimethoxysilyl) propyldimethyloctadecyl ammonium chloride and the homopolymer of 3-(trimethoxysilyl) propyldimethyloctadecyl ammonium chloride as prepared in Example 2. In all cases 2 inch (5.1 cm) by 2 inch (5.1 cm) swatches of fabric were treated by immersing them in an aqueous solution containing the respective concentration of monomeric or polymeric 3-(trimethoxysilyl) propyldimethyloctadecyl ammonium chloride for a minimum of ten minutes. The swatches were subsequently removed from the aqueous solution and air-dried overnight. The swatches were analyzed for antimicrobial activity using ASTM E2149-01 as described in Example 5 followed by an accelerated laundering test according to AATCC 61-1996, which simulates multiple laundering effects. The swatches were again analyzed for antimicrobial activity according to ASTM E2149-01 to determine the effect of laundering on the antimicrobial activity. Antimicrobial activity is reported as percent reduction in E. coli concentration."}}}
{"smiles": "CCCCCCCCCCCCCCCCCC[N+](C)(C)CCC[Si](OC)(OC)OC.[Cl-]", "note": "[Monomer, 3-(trimethoxysilyl) propyldimethyloctadecyl ammonium chloride]", "values": [{"measurement": "MIC", "setting": "[1]", "value": 0.98, "unit": "µg/mL"}, {"measurement": "Log Kill", "setting": "[2]; coconut shell activated carbon treated at 0.1 wt. % agent", "value": "None"}, {"measurement": "Log Kill", "setting": "[2]; coconut shell activated carbon treated at 0.25 wt. % agent", "value": 6.11}, {"measurement": "(Wt.) % CTC", "setting": "[3]; activated carbon treated at 0.1 wt. % agent", "value": "77.6 (Wt.) %"}, {"measurement": "(Wt.) % CTC", "setting": "[3]; activated carbon treated at 0.25 wt. % agent", "value": "73.4 (Wt.) %"}, {"measurement": "(Wt.) % CTC", "setting": "[3]; activated carbon treated at 0.5 wt. % agent", "value": "75.4 (Wt.) %"}, {"measurement": "% Reduction, laundered", "setting": "[4]; 0.010 % active in solution", "value": 0, "unit": "%"}, {"measurement": "% Reduction, unlaundered", "setting": "[4]; 0.010 % active in solution", "value": 22, "unit": "%"}, {"measurement": "% Reduction, laundered", "setting": "[4]; 0.025 % active in solution", "value": 0, "unit": "%"}, {"measurement": "% Reduction, unlaundered", "setting": "[4]; 0.025 % active in solution", "value": 38, "unit": "%"}, {"measurement": "% Reduction, laundered", "setting": "[4]; 0.050 % active in solution", "value": 98.86, "unit": "%"}, {"measurement": "% Reduction, unlaundered", "setting": "[4]; 0.050 % active in solution", "value": 95, "unit": "%"}, {"measurement": "% Reduction, laundered", "setting": "[4]; 0.075 % active in solution", "value": 99.19, "unit": "%"}, {"measurement": "% Reduction, unlaundered", "setting": "[4]; 0.075 % active in solution", "value": 99.59, "unit": "%"}, {"measurement": "% Reduction, laundered", "setting": "[4]; 0.100 % active in solution", "value": 99.91, "unit": "%"}, {"measurement": "% Reduction, unlaundered", "setting": "[4]; 0.100 % active in solution", "value": 99.99, "unit": "%"}, {"measurement": "% Reduction, laundered", "setting": "[4]; 0.25 % active in solution", "value": 99.99, "unit": "%"}, {"measurement": "% Reduction, unlaundered", "setting": "[4]; 0.25 % active in solution", "value": 99.99, "unit": "%"}]}
